The target in assay [1] is T1, Estrogen receptor beta (Homo sapiens, UniProt Q92731). Description: Antagonist activity at human ERbeta expressed in HEK293T cells after 24 hrs by ERE-based dual luciferase reporter gene assay relative to E2. The format is cell-based. Set-up: concentration or dose not given beside the values.
The target of assay [2] is T2, Estrogen receptor (Homo sapiens, UniProt P03372).
T2 sequence (P03372 whole entry): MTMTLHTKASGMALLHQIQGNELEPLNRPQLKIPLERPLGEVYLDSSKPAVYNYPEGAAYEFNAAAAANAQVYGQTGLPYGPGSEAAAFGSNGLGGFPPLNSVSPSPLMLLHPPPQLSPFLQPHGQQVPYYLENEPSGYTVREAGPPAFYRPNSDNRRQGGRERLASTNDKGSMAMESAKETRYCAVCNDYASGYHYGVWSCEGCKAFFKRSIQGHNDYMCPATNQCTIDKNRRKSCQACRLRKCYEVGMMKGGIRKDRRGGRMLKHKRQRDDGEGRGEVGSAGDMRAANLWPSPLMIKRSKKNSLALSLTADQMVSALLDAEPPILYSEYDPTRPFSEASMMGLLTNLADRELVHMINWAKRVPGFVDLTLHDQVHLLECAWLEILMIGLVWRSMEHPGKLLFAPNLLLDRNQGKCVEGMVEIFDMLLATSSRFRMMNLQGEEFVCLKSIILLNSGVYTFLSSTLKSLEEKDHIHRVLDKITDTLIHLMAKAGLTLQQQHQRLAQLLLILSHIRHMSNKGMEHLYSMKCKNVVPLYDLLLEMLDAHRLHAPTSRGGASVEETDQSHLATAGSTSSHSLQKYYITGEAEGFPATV
In words: Agonist activity at human ERalpha expressed in HEK293T cells after 24 hrs by ERE-based dual luciferase reporter gene assay. It is filed as cell-based.

Assay [3] is described as follows: Inhibition of NFkappaB in mouse RAW 264.7 cells assessed as reduction in LPS induced NO production after 24 hrs by Griess assay. To be noted: RAW264.7, 24 h. It is filed as cell-based.
Assay [4] deals with T1, Estrogen receptor beta. In words: Agonist activity at human ERbeta expressed in HEK293T cells after 24 hrs by ERE-based dual luciferase reporter gene assay. It is filed as cell-based.
The target of assay [5] is T2, Estrogen receptor. Description: Antagonist activity at human ERalpha expressed in HEK293T cells after 24 hrs by ERE-based dual luciferase reporter gene assay. The format is cell-based.
In assay [6] the target is T3, Estrogen receptor (Homo sapiens) (UniProt P03372).
T3 sequence (whole entry): T2 sequence (P03372 whole entry)
Description: Agonist activity at human ERalpha expressed in HEK293T cells after 24 hrs by ERE-based dual luciferase reporter gene assay relative to E2. The format is cell-based.

Assay [7] concerns MCF7. In words: cells. The following applies: Homo sapiens, MCF7, 72 h.
The species named for assay [8] is Mus musculus. In words: Inhibition of NFkappaB in mouse RAW 264.7 cells assessed as reduction in LPS induced NO production at 10 uM after 24 hrs by Griess assay relative to control. The format is cell-based.
Assay [9] deals with T3, Estrogen receptor (Homo sapiens). Description: Antagonist activity at human ERalpha expressed in HEK293T cells after 24 hrs by ERE-based dual luciferase reporter gene assay relative to E2. The format is cell-based.
Assay [10] has as its target T1, Estrogen receptor beta. In words: Agonist activity at human ERbeta expressed in HEK293T cells after 24 hrs by ERE-based dual luciferase reporter gene assay relative to E2. The format is cell-based.
The target of assay [11] is T2, Estrogen receptor. In words: Binding affinity to human ERalpha LBD after 2 hrs in absence of light by competitive fluorometric binding assay.
Assay [12] addresses T1, Estrogen receptor beta. In words: Antagonist activity at human ERbeta expressed in HEK293T cells after 24 hrs by ERE-based dual luciferase reporter gene assay. The format is cell-based.
Assay [13] has as its system MCF7. In words: Antitumor activity against human MCF7 cells xenografted in nude Balb/c mouse assessed as reduction in tumor burden at 25 mg/kg, po administered once every 2 days via gavage measured on day 12. The format is functional. Also noted: scale not given: the % may be the effect or the level left.
The test system of assay [14] is MCF7. Description: Antitumor activity against human MCF7 cells xenografted in nude Balb/c mouse assessed as tumor growth inhibition at 25 mg/kg, po administered once every 2 days via gavage measured on day 27. The format is functional. To be noted: read-out: TGI.
For assay [15], the target named is T1, Estrogen receptor beta. Description: Binding affinity to human ERbeta LBD after 2 hrs in absence of light by competitive fluorometric binding assay.

Some results are limits rather than exact numbers.

T1 sequence (Q92731 whole entry): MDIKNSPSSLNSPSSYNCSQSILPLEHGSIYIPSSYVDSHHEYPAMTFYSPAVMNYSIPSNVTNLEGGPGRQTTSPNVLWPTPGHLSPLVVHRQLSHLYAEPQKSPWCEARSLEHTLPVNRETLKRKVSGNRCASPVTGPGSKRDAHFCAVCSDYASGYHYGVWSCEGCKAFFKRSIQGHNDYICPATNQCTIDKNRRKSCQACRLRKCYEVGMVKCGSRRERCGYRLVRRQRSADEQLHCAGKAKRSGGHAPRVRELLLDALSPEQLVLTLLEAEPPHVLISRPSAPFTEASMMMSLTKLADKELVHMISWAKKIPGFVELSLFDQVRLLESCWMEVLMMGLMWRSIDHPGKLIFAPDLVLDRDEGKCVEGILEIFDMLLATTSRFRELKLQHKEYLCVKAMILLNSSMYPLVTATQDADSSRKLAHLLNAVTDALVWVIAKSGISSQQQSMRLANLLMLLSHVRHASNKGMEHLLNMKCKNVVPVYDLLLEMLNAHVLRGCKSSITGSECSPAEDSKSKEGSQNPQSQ

As for `Cc1ccccc1OS(=O)(=O)C1CC2OC1C(c1ccc(/C=C/c3cc(O)cc(O)c3)cc1)=C2c1ccc(O)cc1` (stereo not given), the Efficacy amounted to 100% in assay [1], 84% in assay [6], 36% in assay [9] and 36% in assay [10]. In addition, the EC50 in [2] stood at 1250 nM; in assay [4], 242 nM. For the same compound, the IC50 in [3] was determined as 28400 nM; in assay [5], 10 nM; in assay [7], 55800 nM. For the same compound, the inhibition in assay [8] was 39.1%.
With `O=S(=O)(Oc1ccccc1C(F)(F)F)C1CC2OC1C(c1ccc(/C=C/c3cc(O)cc(O)c3)cc1)=C2c1ccc(O)cc1` (stereo not given), the Efficacy was 82% in [1], -24% in assay [6], 3% in assay [9] and 48% in assay [10]. Further, the IC50 in assay [3] stood at 17200 nM; in assay [7], 18300 nM. The same compound displayed an EC50 in assay [4] of 2900 nM. The inhibition in assay [8] was found to be 38.5%. Further, the Ki in assay [11] is 499 nM.
Take `Cc1ccc(OS(=O)(=O)C2CC3OC2C(c2ccc(/C=C/c4cc(O)cc(O)c4)cc2)=C3c2ccc(O)cc2)cc1` (stereo not given): the IC50 was 69 nM in assay [12], 12500 nM in [3], 2 nM in assay [5] and 9200 nM in assay [7]. Besides, the Efficacy in assay [1] stood at 42%; in assay [6] it was 77%; in assay [9], 1%; in assay [10], 29%. The EC50 in assay [2] was 71 nM; in [4], 780 nM. In addition, the inhibition in [8] was found to be 42.3%.
`CCc1ccccc1OS(=O)(=O)C1CC2OC1C(c1ccc(/C=C/c3cc(OC)cc(OC)c3)cc1)=C2c1ccc(O)cc1` (stereo not given): the Efficacy was 72% in assay [1], 18% in assay [6], 37% in assay [9] and 20% in assay [10]. Besides, the results for the half-maximal effective concentration (EC50) in [2] and in assay [4] were 146 nM and 9 nM, respectively. Besides, the values for the IC50 in assay [3], in assay [5] and in assay [7] were 790 nM, 3 nM and 49800 nM, respectively. Also, the inhibition in [8] worked out at 65.4%.
In the case of `CC/C(=C(\c1ccccc1)c1ccc(OCCN(C)C)cc1)c1ccccc1` [TAMOXIFEN], the Activity in assay [13] is reported as 48%. Also, the inhibition in vivo at 25 mg/kg in assay [14] was found to be 33%.
As to `O=S(=O)(Oc1ccc(-c2ccccc2)cc1)C1CC2OC1C(c1ccc(/C=C/c3cc(O)cc(O)c3)cc1)=C2c1ccc(O)cc1` (stereo not given), the Efficacy in assay [1] was 97%; in assay [6], 41%; in [9], 68%; in assay [10], 82%. The results for the EC50 in [2] and in assay [4] were 4930 nM and 43 nM, respectively. The results for the IC50 in [3] and in assay [7] were 18700 nM and 7800 nM, respectively. Also, the inhibition in assay [8] turned out to be 43%.
As to `O=S(=O)(Oc1cccc(C(F)(F)F)c1)C1CC2OC1C(c1ccc(/C=C/c3cc(O)cc(O)c3)cc1)=C2c1ccc(O)cc1` (stereo not given), the IC50 in [12] was found to be 42 nM; in assay [3], 14600 nM; in assay [5], 72 nM; in assay [7], 11500 nM. Besides, the Efficacy in assay [1] is 31%; in assay [6] it was -7%; in assay [9], -10%; in assay [10], 29%. In assay [4], this compound came in with an EC50 of 1730 nM. Further, in [8], the inhibition is 41.6%.
For `O=S(=O)(Oc1cccc(/C=C/c2cc(O)cc(O)c2)c1)C1CC2OC1C(c1ccc(O)cc1)=C2c1ccc(O)cc1` (stereo not given), the Efficacy in [1] stood at 93%; in assay [6] it was 15%; in assay [9], 29%; in assay [10] it was 62%. The 50% inhibitory concentration (IC50) turned out to be 16700 nM in [3], 1410 nM in assay [5] and 17800 nM in assay [7]. In addition, the affinity in [15], expressed as Ki, was 4580 nM. In addition, in assay [4], the EC50 is 749 nM. The inhibition in [8] was found to be 24.8%.
As for `O=S(=O)(Oc1ccccc1Cl)C1CC2OC1C(c1ccc(/C=C/c3cc(O)cc(O)c3)cc1)=C2c1ccc(O)cc1` (stereo not given), the IC50 in [12] is 4310 nM; in assay [3], 5000 nM; in assay [5], 166 nM; in [7] it was 40400 nM. Moreover, the Efficacy came to 45% in assay [1], 79% in assay [6], 49% in [9] and 25% in assay [10]. The EC50 in [2] turned out to be 273 nM; in assay [4] it was 63 nM. Further, in assay [8], the inhibition is 60.9%.
With `O=S(=O)(Oc1cccc(Br)c1)C1CC2OC1C(c1ccc(/C=C/c3cc(O)cc(O)c3)cc1)=C2c1ccc(O)cc1` (stereo not given), the Efficacy in assay [1] is 65%; in [6], 3%; in assay [9], 21%; in assay [10] it was -2%. Moreover, the results for the IC50 in assay [3], in assay [5] and in assay [7] were 2530 nM, 2420 nM and 19800 nM, respectively. For the same compound, the Ki in assay [15] is 50 nM. Also, in assay [8], the inhibition amounted to 60.9%.
Turning to `COc1cc(/C=C/c2ccc(C3=C(c4ccc(O)cc4)C4CC(S(=O)(=O)Oc5cccc(OC)c5)C3O4)cc2)cc(OC)c1` (stereo not given), the IC50 in assay [12] is 646 nM; in [3], 1260 nM; in [7], 77100 nM. Besides, the Efficacy in assay [1] is 39%; in assay [6] it was -2%; in assay [9], 32%; in assay [10], 37%. The compound also showed an EC50 in assay [4] of 941 nM. Further, in assay [8], the inhibition worked out at 60.1%.
Regarding `COc1cc(/C=C/c2ccc(C3=C(c4ccc(O)cc4)C4CC(S(=O)(=O)Oc5ccc(Br)cc5)C3O4)cc2)cc(OC)c1` (stereo not given), the Efficacy was 94% in assay [1], 18% in assay [6], 97% in assay [9] and 6% in [10]. Besides, the values for the IC50 in assay [3], in assay [5] and in assay [7] were over 100000 nM, 9270 nM and over 100000 nM, respectively. Moreover, the Ki in assay [15] and in assay [11] was over 10000 nM throughout. Further, the inhibition in assay [8] is 30.8%.
Take `COc1cc(/C=C/c2ccc(C3=C(c4ccc(O)cc4)C4CC(S(=O)(=O)Oc5ccccc5)C3O4)cc2)cc(OC)c1` (stereo not given): the Efficacy is 85% in assay [1], 10% in assay [6], 89% in assay [9] and 57% in assay [10]. Besides, the IC50 in assay [3] and in [7] was over 100000 nM each time. Also, the Ki in assay [15] and in [11] was over 10000 nM throughout. In [4], this compound showed an EC50 of 5760 nM. The inhibition in assay [8] turned out to be 20.4%.

(Values after ChEMBL document CHEMBL4196131 (J Med Chem, 2018).)
